In publication PMC11766601, “A Comparative Study of the In Vitro Intestinal Permeability of Pinnatoxins and Portimine” (Marine Drugs, 2025):
Marks after values point to notes of the source that are not given here.

What was measured:
[1] = test system: Caco-2 cells; assay: Trans-epithelial electrical resistance (TEER) of differentiated Caco-2 monolayers; type: cell-based, human; conditions: 24 h, 16 and 32 ng/mL
Experimental: (§1) All experiments were performed with human intestinal Caco-2 cells (ATCC-HTB37), acquired from the American Type Culture Collection (ATCC; Manassas, VA, USA). Caco-2 cells originate from a colorectal adenocarcinoma, but upon reaching confluence, they differentiate and express the characteristics of enterocytes. The cells were cultivated in minimum essential medium containing 5.5 mM D-glucose, Earle’s salts, and 2 mM L-alanyl-glutamine (MEM GlutaMAX™, Gibco, Bromont, QC, Canada) supplemented with 10% fetal bovine serum (FBS, Gibco), 1% non-essential amino acids, 50 U/mL penicillin, and 50 μg/mL streptomycin (Gibco) under humidified conditions (37 °C, 5% CO2, 95% humidity). The cells were grown for 3–4 days up to 80% confluence before trypsinization and sub-culture. For the experiments, the cells were seeded in TRANSWELL® plates (12 wells, 0.4 µm pore size; Costar®, Corning Incorporated, Corning, NY, USA) at a density of 90,000 cells/cm^2. Prior to toxin treatment, highly differentiated Caco-2 cells were obtained after 24–26 days of culture, with medium renewal every 2–3 days. Passage numbers between 30 and 40 were used for experiments.
(§2) PnTX-A, PnTX-G, PnTX-E, PnTX-H, and portimine stock solutions were prepared in methanol, while PnTX-F was provided in acetonitrile/acetic acid (50%/0.1%). For each toxin, the cells were incubated at 8, 16, and 32 ng/mL (diluted in HBSS) for 2 h, 6 h, and 24 h, with a final volume of 1.5% solvent. The controls were incubated with the cell culture medium containing the respective solvent of the toxin at 1.5%. Each experiment included three biological replicates. Two to three independent experiments were conducted.
Epithelial integrity was examined by measuring the TEER between the apical and basolateral compartments. After rinsing with a HBSS solution (HBSS, HEPES 5 mM, pH 7.4), the Caco-2 monolayers were equilibrated for 30 min at 37 °C with 300 and 1000 µL HBSS in the apical (A) and basolateral (B) chambers, respectively. Then, the content of the apical compartment was replaced with 500 µL HBSS-containing toxins. TEER was quantified with a Millipore Millicell Electrical Resistance System (ERS Millipore, EMD Millipore Corporation, Burlington, MA, USA). The mean value of two measurements per well before and after the treatment was calculated and multiplied by the surface of the insert to obtain Ω × cm^2. After blank subtraction, the results were presented as a percentage of the solvent control.

[2] = test system: Caco-2 cell monolayers; assay: Lucifer Yellow paracellular permeability (barrier integrity); type: cell-based, human; conditions: 24 h
Experimental: as §1, §2
For the assay, both compartments of the insert system were washed with Hank’s balanced salt solution (HBSS). Then, 0.5 mL of 0.1 mg/mL Lucifer Yellow in HBSS buffer and 1 mL of pure HBSS buffer were added to the apical and basolateral compartments, respectively. After a 2 h incubation at 37 °C, the media of the basolateral compartments were collected and the fluorescence of each compartment was measured in triplicate (excitation: 405 nm, emission: 520 nm) with a FLUOstar Optima microplate reader (BMG Labtech, Ortenberg, Germany). After subtraction of the blank (HBSS), the permeability of the […] was calculated against the value obtained for pure LY and reported as % permeability.

[3] = Toxin crossing and apparent permeability across Caco-2 cell monolayers (A to B), LC-MS/MS; type: in vitro ADME, human; conditions: human, Caco-2; for Papp at 2 h, 8 ng/mL / Papp at 6 h, 8 ng/mL: loaded 8 ng/mL; for Papp at 2 h, 8 ng/mL / Papp at 2 h, 16 ng/mL / Papp at 2 h, 32 ng/mL / Papp at 6 h, 8 ng/mL / Papp at 6 h, 16 ng/mL / Papp at 6 h, 32 ng/mL: A to B; for Papp at 2 h, 16 ng/mL / Papp at 6 h, 16 ng/mL: loaded 16 ng/mL; for Papp at 2 h, 32 ng/mL / Papp at 6 h, 32 ng/mL: loaded 32 ng/mL
Experimental: as §1, §2
(§3) The apical and basolateral compartments were collected after 2, 6, and 24 h treatment time. Parts of the solutions that were used to load the apical compartments were also stored (T0) to take into account the real concentration and not the estimated concentration. All the samples were stored at −20 °C until LC/MS analysis.
(§4) The LC-MS/MS analysis of toxins was implemented for the quantitative analysis of toxins. The LC system was an Agilent 1200 (Agilent Technologies, Santa Clara, CA, USA). The chromatographic separation was performed using a column Hypersil GOLD® C18 50 mm × 2.1 mm, 1.9 μm (Thermo Scientific, Waltham, MA, USA). Eluent A consisted of water, and eluent B of acetonitrile/water at a ratio of 95:5 (v/v), with both eluents containing 50 mM formic acid and 2 mM ammonium formate. The LC flow rate was 0.4 mL/min, and the gradient was programmed as follows: 10% B held for 0.5 min, 10–90% B in 5 min, 90% B held for 1 min, 90–10% B in 0.5 min, and 10% B held for 3.0 min, for a total run time of 10 min. The injection volume was 5 μL, while the column temperature was maintained at 40 °C. The column effluent was transferred via a divert valve (Valco Instruments Co., Inc., Houston, TX, USA), either to the mass spectrometer (between 1.7 and 5.5 min) or to waste.
(§5) The detection system was constructed with an API 4000 triple quadrupole mass spectrometer (Sciex, Framingham, MA, USA) equipped with an ElectroSpray Ionization (ESI) source (Turbo V). The mass spectrometer was operated in positive ESI mode. The source temperature was set at 600 °C, and the spray voltage was 5500 V. Air was used as a nebulizer gas and an auxiliary gas, with a gas pressure of 40 and 60 psi, respectively. Meanwhile, the curtain gas and collision gas were nitrogen, with a gas pressure of 15 and 8 psi, respectively. The mass spectrometer was operated in multiple reaction monitoring mode (MRM). One transition was used for quantification (Q) and another as a qualifier transition (q). A mass resolution of 0.7 Da full width at half maximum (FWHD) was set on the first (Q1) and the third (Q3) quadrupoles. Instrument control and data were handled with Analyst software version 1.5.1 (Sciex, Framingham, MA, USA).
(§6) The portimine and PnTX retention times varied between 2.7 and 4.4 min (Figure S1). […]

[4] = test system: Caco-2 cell monolayers; assay: as above; type: in vitro ADME, human; conditions: for % theoretical amount of toxin crossing the Caco-2 cell monolayers: relative to theoretical loaded concentration; for Percentage of toxin crossing the Caco-2 cell monolayers: A to B, relative to quantified T0; for permeability / oral bioavailability class from Caco-2 Papp: threshold Papp > 1.5 × 10^−6 cm·s^−1 = highly penetrative
Experimental: as §1, §2, §3, §4, §5, §6

[5] = test system: mice; conditions: cited from earlier work
[6] = test system: rats; set-up: method as in PMID 34380275; conditions: six hours after gavage of rats with [H^3] 100 µg/kg; liver, kidney, spleen, brain regions; cited from earlier work
[7] = set-up: method as in PMID 32246951; conditions: Anses 2020; cited from earlier work
[8] = test system: cancer cells; conditions: cancer cells; cited from earlier work

Row | Structure (SMILES) | effect on TEER [1] | Papp at 2 h, 8 ng/mL [3] [×10⁻⁶ cm/s] | Papp at 2 h, 16 ng/mL [3] [×10⁻⁶ cm/s] | Papp at 2 h, 32 ng/mL [3] [×10⁻⁶ cm/s] | Papp at 6 h, 8 ng/mL [3] [×10⁻⁶ cm/s] | Papp at 6 h, 16 ng/mL [3] [×10⁻⁶ cm/s] | Papp at 6 h, 32 ng/mL [3] [×10⁻⁶ cm/s] | % theoretical amount of toxin crossing the Caco-2 cell monolayers ([4]; 2 h, 8 ng/mL) [%] | % theoretical amount of toxin crossing the Caco-2 cell monolayers ([4]; 2 h, 16 ng/mL) [%] | % theoretical amount of toxin crossing the Caco-2 cell monolayers ([4]; 2 h, 32 ng/mL) [%] | Percentage of toxin crossing the Caco-2 cell monolayers ([4]; 2 h, loaded 8 ng/mL) | Percentage of toxin crossing the Caco-2 cell monolayers ([4]; 2 h, loaded 16 ng/mL) [%] | Percentage of toxin crossing the Caco-2 cell monolayers ([4]; 2 h, loaded 32 ng/mL) [%] | % theoretical amount of toxin crossing the Caco-2 cell monolayers ([4]; 6 h, 8 ng/mL) [%] | % theoretical amount of toxin crossing the Caco-2 cell monolayers ([4]; 6 h, 16 ng/mL) [%] | % theoretical amount of toxin crossing the Caco-2 cell monolayers ([4]; 6 h, 32 ng/mL) [%] | Percentage of toxin crossing the Caco-2 cell monolayers ([4]; 6 h, loaded 8 ng/mL) [%] | Percentage of toxin crossing the Caco-2 cell monolayers ([4]; 6 h, loaded 16 ng/mL) [%] | Percentage of toxin crossing the Caco-2 cell monolayers ([4]; 6 h, loaded 32 ng/mL) [%] | permeability / oral bioavailability class from Caco-2 Papp [4] | further results
1 | C=CC1=CC2C3OC4(CC5CCCC6(CCC7(OC(CCC7(C)O)CC(=C)CCCC7=NCC(C)C(C)CC72CC1)O6)O5)CC(C)C(O)C3O4 (stereo not shown) [PnTX-G, Pinnatoxin G] | slight, but non-significant, decrease | 9.69 ± 3.25 | 14.4 ± 2.7 | 14.3 ± 3.45 | 21.4 ± 5.82 | 22.8 ± 3.26 | 26.9 ± 3.82 | 6.83 ± 1.04 | 8.37 ± 1.19 | 8.64 ± 0.53 | 15.62 ± 5.24% | 23.32 ± 4.36 | 23.07 ± 5.56 | 15.17 ± 0.58 | 13.25 ± 1.30 | 16.58 ± 2.86 | 34.43 ± 9.39 | 36.83 ± 5.26 | 43.41 ± 6.15 | high oral bioavailability | effect on passage of LY [2]: lower effect; effect on the small intestine ([5]; mice orally treated with 300 μg/kg and above, villous atrophy, focal degeneration of epithelial cells): alteration of the small intestine; onset of toxicity after oral exposure ([5]; oral exposure to a certain dose): within one hour; tissue distribution of radioactivity [6]: radioactivity was distributed in the peripheral organs; provisional acute health-based guidance value [7]: 0.13 μg PnTX-G/kg body weight per day
2 | C=CC1=CC2C3O[C@]4(CCC(O4)[C@@H](C)C[C@@H](O)C3=O)CC(=O)C3=NCC[C@@]32CC1 (stereo partly shown) [Portimine-B, portimine-B, reference compound] |  |  |  |  |  |  |  |  |  |  |  |  |  |  |  |  |  |  |  |  | apoptosis induction [8]: induces apoptosis in cancer cells but with less activity
3 | C=C1CCCC2=NCC(C)C(C)CC23CCC(C(O)CCC(=O)O)=CC3C2OC3(CC(C)CC2O3)CC2OC3(CCC4(OC(CCC4(C)O)C1)O3)CC(C)C2O (stereo not shown) [PnTX-E] | slight, but non-significant, decrease | 3.75 | 1.5 ± 0.4 | 1.81 ± 0.28 | 2.04 ± 0.4 | 1.49 ± 0.65 | 2.38 ± 0.71 | 5.25 | 2.12 ± 0.71 | 2.47 ± 0.31 | 6.05 * % | 2.41 ± 0.65 | 2.92 ± 0.45 | 2.87 ± 0.53 | 2.12 ± 1.06 | 3.25 ± 0.88 | 3.29 ± 0.64 | 2.40 ± 1.06 | 3.85 ± 1.15 | poor permeability | effect on LY permeability ([2]; all concentrations (8, 16, 32 ng/mL)): significant increase; Papp ([3]; 2 and 6 h, 8-32 ng/mL, read-out: Papp, range of means): 1.49 to 3.75 ×10⁻⁶ cm/s; decrease of toxin amount in the apical compartment ([4]; 2 h, all the tested concentrations): approximately 15%; toxin amount in the apical compartment ([4]; 6 h): approximately 100 % of the loaded amount; amount of toxin crossing the intestinal barrier in vitro ([4]; regardless of the concentration loaded, 2 and 6 h): < 4%; macroscopic lesions on the intestine, other organs and tissues ([5]; mice, oral exposure): no macroscopic lesions
